Structures can show the parent of a compound that is named as a salt.

Usually melting point stands for the temperature, or range, at which the solid turns liquid.

`CCNC(=O)CCOc1nc(-c2ncccn2)nc(NS(=O)(=O)c2ccc(C(C)(C)C)cc2)c1Oc1ccccc1OC` (as salt: sodium) [Compound No. 49, N-ethyl-3-[6-(4-t-butylphenylsulfonylamino)-5-(2-methoxyphenoxy)-2-(2-pyrimidinyl)-4-pyrimidinyloxy]-propionamide] showed a melting point of 117 to 120 °C.

Source of the values: US6337334B1, “Pyrimidine derivatives” (Kowa Co., Ltd., priority 1994, dated 2002).
